Where two headings read alike, the source gives them in different places.
How the values were obtained:
[1] = test system: HIV NL4.3 strain; assay: HIV infectivity assay, reporter cell line HeLa-CD4-LTR-LacZ, β-Gal activity (Tat protein inhibition); type: cell-based, HIV-1 (NL4.3); settings: Human immunodeficiency virus 1, read-out: Infectivity IC50, HeLa-CD4-LTR-LacZ
In short: (§1)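 HeLa-CD4-LTR-LacZ reporter cells (β-Gal under HIV 5′ LTR) infected with HIV NL4.3; β-Gal activity read 72 h post infection, with parallel Cell-Titer-Glo viability. OM10.1 carry a single wild-type provirus; ACH-2 a single provirus with TAR C37T mutation, defective Tat-TAR feedback.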

[2] = Cytotoxicity assay, Cell-Titer-Glo, HeLa-CD4-LTR-LacZ; settings: human, hela-cd4-ltr-lacz cells, Infectivity CC50, HeLa-CD4-LTR-LacZ
In short: as §1

Row | Structure (SMILES) | IC50 ([1]; analogs of TT-44863 (Table 2)) [µM] | CC50 ([2]; analogs of TT-44863 (Table 2)) [µM] | IC50 ([1]; analogs of TT-44881 (Table 1)) [µM] | CC50 ([2]; analogs of TT-44881 (Table 1)) [µM]
1 | COc1ccc(C(F)(F)F)cc1NC(=O)CCn1cc(C(F)(F)F)cc(Cl)c1=O [compound 47020] | > 25 | > 25 |  | 
2 | COc1ccc(C(F)(F)F)cc1NC(=O)Cn1cc(C(F)(F)F)cc(F)c1=O [compound 47033] | 1 to 10 | 50 to 100 |  | 
3 | O=C(NCCCN1CCCC1=O)c1nc2ccccc2n1-c1ccccc1 [compound 47051] |  |  | > 25 | > 25
4 | COc1ccc(C(F)(F)F)cc1NC(=O)Cn1cc(C(F)(F)F)cc(Br)c1=O [compound 47055] | 1 to 10 | 50 to 100 |  | 
5 | N#Cc1ccc(C(F)(F)F)cc1NC(=O)Cn1cc(C(F)(F)F)cc(Cl)c1=O [compound 47061] | > 100 | > 100 |  | 
6 | CCOC(=O)c1sc(NC(=O)Cn2cc(C(F)(F)F)cc(Cl)c2=O)nc1C(F)(F)F [compound 47063] | 23.7 | 25 to 50 |  | 
7 | CC(C)(C)c1cn(-c2ccccc2)nc1C(=O)NCCCN1CCCC1=O [compound 47091] |  |  | > 100 | 50 to 100
8 | CC(C)c1nn(-c2ccccc2)cc1C(=O)NCCCN1CCCC1=O [compound 47092] |  |  | > 100 | > 100
9 | COc1ccc(C(F)(F)F)cc1-c1noc(Cn2cc(C(F)(F)F)cc(Cl)c2=O)n1 [compound 47111] | > 100 | > 100 |  | 
10 | O=C(NCCCN1CCCC1=O)c1ccc(=O)n(-c2ccccc2)c1 [compound 47155] |  |  | > 100 | > 100
11 | COc1cc(C(F)(F)F)ccc1NC(=O)Cn1cccc(Cl)c1=O [compound 47171] | > 100 | > 100 |  | 
12 | COc1ccc(C(F)(F)F)cc1-c1noc(Cn2cc(C)cc(Cl)c2=O)n1 [compound 47198] | > 50 | > 50 |  | 
13 | COc1ccc(C(F)(F)F)cc1-c1noc(Cn2cc(C(F)(F)F)ccc2=O)n1 [compound 47199] | > 50 | > 50 |  | 
